3 molecules from patent US20260049072A1, “HETEROCYCLIC COMPOUND FOR INDUCING DEGRADATION OF MUTANT KRAS PROTEIN” (Astellas Pharma Inc., priority 2022, published 2026) can be followed below.

One assay deals with T1, RAS G12D (Homo sapiens, UniProt P01116, G12D).
T1 construct: host or cells: AsPC-1 human pancreatic cancer cells
The experiment in a line: RAS G12D degradation activity, Cell ELISA, AsPC-1. It counts as cell-based. Conditions: AsPC-1 cells, 24 hours; read-out: DC50 (RAS G12D 50% degradation value). How it is done: Test Example 1-2: Evaluation of RAS G12D Degradation Activity on Human KRAS G12D Mutant-Positive Pancreatic Cancer Line AsPC-1
The RAS G12D degradation activities of subject compounds were evaluated in the same manner as in Test Example 1-1 by measuring the expression levels of RAS G12D by a Cell ELISA method.
AsPC-1 cells (ATCC, CRL-1682) were seeded at 36 μL per well on a 384-well plate to give 2.0×10^4 cells per well. As for the cell culture conditions, RPMI-1640 medium (from Sigma-Aldrich) containing 10% fetal bovine serum was used in the presence of 5% CO2 at 37° C.
The next day, the subject compounds (10 points having final concentrations in the range of 3 μM to 0.1 nM) and DMSO, which was the solvent for the subject compounds, as a negative control were diluted 100-fold with a fresh medium and were each added at 4 μL per well, followed by culturing for 24 hours.
The next day, the procedures from the immobilization of the cells to before the addition of the blocking solution were performed by the same methods as in Test Example 1-1. A blocking solution (Intercept Blocking Buffer; from LI-COR Biosciences) was added at 20 μL per well. After allowing the plate to stand for 30 minutes at room temperature, the supernatant was removed by centrifugation. A solution obtained by diluting an anti-R-actin antibody (1,000-fold dilution) with the blocking solution was added to the wells of the positive control as a primary antibody, and a solution obtained by diluting an anti-Ras (G12D Mutant Specific) antibody (Ras (G12D Mutant Specific) (D8H7) Rabbit mAb; from Cell Signaling Technology; 1,000-fold dilution) and an anti-3-actin antibody (1,000-fold dilution) with the blocking solution was added to the other wells as primary antibodies, each at 15 μL per well. The plate was allowed to stand overnight at 4° C.
The next day, the supernatant was removed by centrifugation, and the plate was washed with PBS. The supernatant was removed by centrifugation, and a solution obtained by diluting an anti-rabbit IgG antibody and an anti-mouse IgG antibody 1,000-fold with the blocking solution was added at 15 μL per well as secondary antibodies. After allowing the plate to stand at room temperature for an hour, the supernatant was removed by centrifugation, and the plate was washed with PBS. After removing the supernatant, the plate was dried as it was with air at room temperature for two hours or more, and the 700-nm and 800-nm fluorescent signals were measured with Aerius.
With the RAS G12D signaling value at the time of addition of DMSO corrected with the signaling value of β-actin taken as 0% and with the RAS G12D signaling value under the conditions of staining with the anti-β-actin antibody alone taken as 100%, the RAS G12D degradation rates were calculated. The 50% degradation values (DC50) were calculated by Sigmoid-Emax model nonlinear regression analysis.
On the technique in general: An ELISA detects its analyte on a solid surface through an enzyme-linked reagent.

For the next assay, the system named is MIA PaCa-2 cells. Put plainly: Non-anchorage-dependent cell growth inhibition (spheroid 3D culture), MIA PaCa-2. It counts as cell-based. Conditions: Homo sapiens, MIA PaCa-2, 144 h; KRAS G12C mutant-positive, 3D spheroid, six days, CellTiter-Glo 2.0; read-out: MIA PaCa-2 IC50. How it is done: Test Example 3: Evaluation of Non-Anchorage-Dependent Cell Growth Inhibitory Activity on Human KRAS G12V Mutant-Positive Pancreatic Cancer Line PA-TU-8902, Human KRAS G12D Mutant-Positive Pancreatic Cancer Line AsPC-1 or Human KRAS G12C Mutant-Positive Pancreatic Cancer Line MIA PaCa-2
The non-anchorage-dependent cell growth inhibitory activities of subject compounds were evaluated by spheroid 3D cell culture.
PA-TU-8902 cells, AsPC-1 cells or MIA PaCa-2 cells (RIKEN BRC, RCB2094) were seeded at 36 µL/well on a low-cell-adhesive round bottom 384-well plate (Prime Surface: from Sumitomo Bakelite) to give 5×10^2 cells per well. The PA-TU-8902 cells were under the same conditions as in Test Example 1-1, and the AsPC-1 cells were under the same conditions as in Test Example 1-2. For the MIA PaCa-2 cells, RPMI-1640 medium containing 10% fetal bovine serum was used in the presence of 5% CO2 at 37° C.
The next day, the subject compounds (6-9 points having final concentrations in the range of 3 μM to 0.3 nM) and DMSO, which was the solvent for the subject compounds, as a negative control were diluted 100-fold with a fresh medium and were each added at 4 μL per well. After culturing in the presence of 5% CO2 at 37° C. for six days, CellTiter-Glo 2.0 (from Promega) was added at 20 μL per well. After stirring with a plate mixer (from FINEPCR) at normal temperature for an hour, the luminescent signals were measured with ARVO X3 (from PerkinElmer).
With the signaling value in treatment with DMSO taken as 0% inhibition and with the signaling value in the medium alone without cells taken as 100% inhibition, the 50% inhibition values (IC50) were calculated by Sigmoid-Emax model nonlinear regression analysis.
(In general: ATP-based viability assays read luminescence as a measure of living cells.)

T1 sequence (P01116 1-188 isoform P01116-2 G12D): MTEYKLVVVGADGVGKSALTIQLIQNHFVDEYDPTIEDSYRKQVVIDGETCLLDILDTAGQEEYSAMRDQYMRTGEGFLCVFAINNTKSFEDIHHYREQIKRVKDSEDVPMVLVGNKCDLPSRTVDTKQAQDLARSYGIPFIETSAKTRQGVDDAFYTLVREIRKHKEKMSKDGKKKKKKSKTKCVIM

With `CO[C@@H](C)COc1cc(OC2CN(C(=O)N3CC(CN(C)C)C3)C2)c2cc(C3CC3)c(-c3c(C)c(F)cc4[nH]ncc34)c(OCc3ccc(-c4cn([C@H](C(=O)N5C[C@H](O)C[C@H]5C(=O)N[C@@H](CO)c5ccc(-c6scnc6C)cc5)C(C)C)nn4)cc3)c2n1` (atropisomer, axis not shown; (M)) [Example 14, (4R)-1-[(2S)-2-(4-{4-[({(7M)-6-cyclopropyl-4-[(1-{3-[(dimethylamino)methyl]azetidine-1-carbonyl}azetidin-3-yl)oxy]-7-(6-fluoro-5-methyl-1H-indazol-4-yl)-2-[(2S)-2-methoxypropoxy]quinolin-8-yl}oxy)methyl]phenyl}-1H-1,2,3-triazol-1-yl)-3-methylbutanoyl]-4-hydroxy-N-{(1R)-2-hydroxy-1-[4-(4-methyl-1,3-thiazol-5-yl)phenyl]ethyl}-L-prolinamide], the DC50 (usually the concentration at which degradation of the target reaches its halfway point) on RAS G12D stood at 0.002 µM. In addition, in the assay with MIA PaCa-2 cells, the IC50 (in general, the concentration that inhibits the measured activity by half) came out at 0.01 µM.

On to `CO[C@@H](C)COc1nc(N2CCOCC2)c2cc(C3CC3)c(-c3c(C)c(F)cc4[nH]ncc34)c(OCc3ccc(-c4cn([C@H](C(=O)N5C[C@H](O)C[C@H]5C(=O)N[C@@H](CO)c5ccc(-c6scnc6C)cc5)C(C)C)nn4)cc3)c2n1` (atropisomer, axis not shown) [Example 21], for which, at RAS G12D, the DC50 stood at 0.008 µM. The concentration for half-maximal inhibition (IC50) with MIA PaCa-2 cells amounted to 0.011 µM.

With `CO[C@@H](C)COc1nc(OC2CN(C(=O)NCCN(C)C)C2)c2cc(C3CC3)c(-c3c(C)c(F)cc4[nH]ncc34)c(OCc3ccc(-c4cn([C@H](C(=O)N5C[C@H](O)C[C@H]5C(=O)N[C@@H](CO)c5ccc(-c6scnc6C)cc5)C(C)C)nn4)cc3)c2n1` (atropisomer, axis not shown) [Example 17], the DC50 on RAS G12D was 0.011 µM. In addition, the IC50 in the assay with MIA PaCa-2 cells came out at 0.01 µM.
